Measurements reported in patent publication US8802638B1, “Flavonoid treatment of glycogen synthase kinase-based disease” (University of South Florida, priority 2007, dated 2014).

Legend:
[1] = test system: TACE, ADAM10, sAPPα; test: non-amyloidogenic APP processing (TACE, ADAM10 maturation, sAPPα release); format: cell-based; details: data not shown
Source text: The presence of phosphorylated PS1 CTFs corresponds with reduction of Aβ generation and accumulation of the β-CTF of APP, as was observed following luteolin treatment. The accumulation β-CTFs following luteolin treatment is a fraction of β-CTF seen after direct γ-secretase inhibitor treatment (data not shown). In view of this finding, selective GSK-3 inactivation is a less toxic, more regulative, substrate-specific mode of γ-secretase inhibition. Earlier studies routinely employed phorbol-12,13-dibutyrate (PDBu), a potent PKC activator, as their phosphorylating agent. Thus, luteolin was tested for similar PKC activation, rather than a GSK-3 inhibitor. […] Additionally, there are no indications GSK-3α inhibition affects non-amyloidogenic processing of APP, since luteolin, SB-415286, and GSK-3α RNAi treatment have no effect on the maturation of TACE, ADAM10, or sAPPα release (data not shown), which are all strongly associated with PKC activation.

[2] = test system: PS1; test: PS1 processing and PS1-APP association in brain homogenates of luteolin-treated Tg2576 mice; format: in vivo; details: 20 mg/kg i.p. daily for 30 days
Experimental: (§1) Sixteen (8♂/8♀) Tg2576 mice (Taconic, Germantown, N.Y.) were used; 8 mice received luteolin, and the other 8 received phosphate buffered saline (PBS). Beginning at 8 months of age, Tg2576 mice were intraperitoneally injected with luteolin (20 mg/kg) or PBS daily for 30 days based on previously described methods. These mice were then sacrificed at 9 months of age for analyses of Aβ levels and Aβ load in the brain according to previously described methods. Animals were housed and maintained in the College of Medicine Animal Facility at the University of South Florida (USF), and all experiments were in compliance with protocols approved by the USF Institutional Animal Care and Use Committee.
Cultured cells or mouse brain were lysed in ice-cold lysis buffer described above, and an aliquot corresponding to 50 μg of total protein was electrophoretically separated using 12% Tris-HCl or 16.5% Tris-tricine gels. Electrophoresed proteins were then transferred to PVDF membranes, washed in dH2O, and blocked for 1 hr at ambient temperature in Tris-buffered saline (TBS; Bio-Rad) containing 5% (w/v) non-fat dry milk. After blocking, membranes were hybridized for 1 hr at ambient temperature with various primary antibodies. Membranes were then washed 3× for 5 min each in dH2O and incubated for 1 hr at ambient temperature with the appropriate HRP-conjugated secondary antibody (1:1,000). […] Densitometric analysis was done as previously described using a FluorS Multiimager with Quantity One™ software (39). […] Antibodies used for Western blot included the APP-carboxyl-terminal antibody (1:50)), amino-terminal APP antibody (clone 22C11), or 6E10 (1:1,000), or actin antibody (1:1,500; as an internal reference control). γ-secretase activity was quantified in cell lysates using available kits based on secretase-specific peptides conjugated to fluorogenic reporter molecules. […]
Brain homogenates from these mice were subsequently analyzed by immunoprecipitation, Western blot, and ELISA, seen in FIGS. 28(A) through 37. […]

[3] = test system: Tg2576 mice; test: cerebral Aβ levels by ELISA in luteolin-treated Tg2576 mice; format: in vivo; details: 20 mg/kg i.p. daily for 30 days
Experimental: as §1
Eight month-old Tg2576 mice were treated with 20 mg/kg luteolin administered by daily intraperitoneal injection for 30 days to validate the above findings in vivo. […] Phospho-GSK-3α/β-positive neuronal cells were examined under bright-field using an Olympus BX-51 microscope.
Brain homogenates were immunoprecipitated by PS1 antibody and probed for APP to confirm the proposed mechanism. […] To assess this decrease, ELISA was conducted on both soluble and insoluble Aβ1-40, 42.

[4] = test system: SweAPP N2a cells; test: APP proteolysis (Aβ ELISA, IP, APP CTF Western blot) in SweAPP N2a cells; format: cell-based, murine
Experimental: Cultured cells or mouse brain were lysed in ice-cold lysis buffer described above, and an aliquot corresponding to 50 μg of total protein was electrophoretically separated using 12% Tris-HCl or 16.5% Tris-tricine gels. Electrophoresed proteins were then transferred to PVDF membranes, washed in dH2O, and blocked for 1 hr at ambient temperature in Tris-buffered saline (TBS; Bio-Rad) containing 5% (w/v) non-fat dry milk. After blocking, membranes were hybridized for 1 hr at ambient temperature with various primary antibodies. Membranes were then washed 3× for 5 min each in dH2O and incubated for 1 hr at ambient temperature with the appropriate HRP-conjugated secondary antibody (1:1,000). Antibodies were obtained against the amino-terminus and carboxyl-terminus of PS1 (Chemicon, Temecula, Calif.), amino-terminus and carboxyl-terminus of APP (22C11), actin (Roche, Basel, Switzerland), Aβ (6E10, 48G) (Signet Laboratories, Dedham, Mass.), phosphor-GSK3α (ser^21, clone BK202) (Upstate, Lake Placid, N.Y.), phospho-GSK3α/β (pTyr^279/216) (Sigma), phospho-GSK-3β (Ser^9) (Sigma) and total GSK-3α/β (Sigma). All antibodies were diluted in TBS containing 5% (w/v) of non-fat dry milk. Blots were developed using the luminol reagent (Pierce Biotechnology). Densitometric analysis was done as previously described using a FluorS Multiimager with Quantity One™ software (39). Immunoprecipitation was performed for detection of sAPP-α, sAPP-β and Aβ by incubating 200 μg of total protein of each sample with various sequential combinations of 6E10 (1:100) and/or 22C11 (1:100) antibodies overnight with gentle rocking at 4° C., and 10 μL of 50% protein A-Sepharose beads were then added to the sample (1:10; Sigma) prior to gentle rocking for an additional 4 hrs at 4° C. Following washes with 1× cell lysis buffer, samples were subjected to Western blot as described above. Antibodies used for Western blot included the APP-carboxyl-terminal antibody (1:50)), amino-terminal APP antibody (clone 22C11), or 6E10 (1:1,000), or actin antibody (1:1,500; as an internal reference control). γ-secretase activity was quantified in cell lysates using available kits based on secretase-specific peptides conjugated to fluorogenic reporter molecules.
SweAPP N2a cells and primary neuronal cells derived from Tg2576 mice were treated with varying doses of luteolin to examine luteolin's effect on APP proteolysis. Cellular extracts were collected and analyzed using immunoprecipitation (IP), Western blot, and ELISA. […] See FIGS. 1 through 2(B) and 5 through 6(B). SweAPP N2a and primary Tg2576-derived neuronal cells CTF profiles were analyzed following luteolin treatment to determine at which level luteolin impacts amyloid processing.

[5] = test system: GSK-3α/β; test: GSK-3 activation in brain homogenates of luteolin-treated Tg2576 mice; format: in vivo; details: 20 mg/kg i.p. daily for 30 days
Experimental: as §1
Cultured cells or mouse brain were lysed in ice-cold lysis buffer described above, and an aliquot corresponding to 50 μg of total protein was electrophoretically separated using 12% Tris-HCl or 16.5% Tris-tricine gels. […] Densitometric analysis was done as previously described using a FluorS Multiimager with Quantity One™ software (39). […] Antibodies used for Western blot included the APP-carboxyl-terminal antibody (1:50)), amino-terminal APP antibody (clone 22C11), or 6E10 (1:1,000), or actin antibody (1:1,500; as an internal reference control). γ-secretase activity was quantified in cell lysates using available kits based on secretase-specific peptides conjugated to fluorogenic reporter molecules. […]

[6] = test system: β-catenin; test: β-catenin after luteolin treatment; format: cell-based; details: data not shown

**Q.** Which “maturation of TACE, ADAM10, or sAPPα release” value [1] does the source give for `O=c1cc(-c2ccc(O)c(O)c2)oc2cc(O)cc(O)c12` [luteolin] here?
**A.** The value was “no effect”.

**Q.** And the “holo APP expression in brain homogenates” value [2]?
**A.** The value was “no significant changes”.

**Q.** What about the “PS1-APP association in brain homogenates” value ([2]; IP with PS1 antibody) of the same compound?
**A.** Its value is “effectively abolished PS1-APP association”.

**Q.** And the “PS1 processing (PS1 CTF to actin ratio)” value ([2]; brain homogenates)?
**A.** Its value is “significantly lower levels of PS1 processing”.

**Q.** What about the “reduction of soluble Aβ1-40 in brain homogenates” value [3] of the same compound?
**A.** Its value is 25%.

**Q.** What about the “reduction of soluble Aβ1-42 in brain homogenates” value [3] of the same compound?
**A.** The value was 49%.

**Q.** And the “accumulation of both α and β CTFs (increase over control)” value ([4]; dose dependent, 12 hrs, Western blot densitometry, SweAPP N2a cells)?
**A.** The value was 2-3 fold.

**Q.** What about the “Aβ1-40, 42 peptide generation abrogated” value ([4]; luteolin 20 μM, 12 hrs, SweAPP N2a cells) of the same compound?
**A.** The value was greater than 70%.

**Q.** And the “Aβ1-40, 42 peptide generation abrogated” value ([4]; luteolin 40 μM, 12 hrs, SweAPP N2a cells)?
**A.** Its value is greater than 85%.

**Q.** And the “Aβ1-40, 42 production” value ([4]; result in words, ELISA/IP/Western blot)?
**A.** The value was “effectively reduced Aβ1-40, 42 production in either cell line in a dose dependent manner”.

**Q.** And the “GSK-3α/β active isoforms (ratio of phosphorylated to holo GSK-3)” value [5]?
**A.** The value was “reduced when compared to control”.

**Q.** What about the β-catenin [6] of the same compound?
**A.** The β-catenin was “remains unaffected”.
